For series [1] the following is noted: background, in words; cited from earlier work.
For series [2] the following is noted: background, in words; cited from earlier work. This is another data set of the same source.
Series [3] in a line: Pharmacokinetic evaluation in Cynomolgus macaques. The series is classed as in vivo, adult male Cynomolgus macaques. The settings on record: cynomolgus monkey, plasma, 0.2 mg/kg. How it is done:
2. The pharmacokinetic behaviors of the polypeptide derivatives (i.e., AMY-001 to AMY-041) prepared in Example 1 and Example 2 in Cynomolgus macaques were tested.
Each polypeptide derivatives (i.e., AMY-001 to AMY-041) was respectively administered to adult male Cynomolgus macaques as a single injection via subcutaneous injection (S.C., 0.2 mg/kg, with PBS as a medicament vehicle, a concentration of 0.2 mg/mL, […], with PBS as a medicament vehicle, a concentration of 0.2 mg/mL, and an administration volume of 1 mL), respectively. After administration, whole blood samples were respectively collected from the jugular vein or other appropriate veins at selected time points. 0.2 mL of blood was collected and placed in a labeled EDTA-K2 anticoagulant tube. The tube was gently inverted up and down to ensure thorough mixing of the anticoagulant (EDTA-K2) with the blood, immediately placed on wet ice and centrifuged as soon as possible to separate plasma, and the centrifugation conditions were set to 4° C., 6800 g, and 6 minutes. Plasma samples were stored in a refrigerator at a temperature not exceeding −20° C. for subsequent analysis.
(§1) Under yellow light conditions in an ice water bath, (1) except for the blank sample, 300 μL of precipitant containing internal standard was added to a 96-well plate containing 20 μL of a standard curve sample, a quality control sample or an unknown sample; 300 μL of acetonitrile was added to the blank sample; (2) vortex mixing; (3) centrifugation; (4) 150 μL of supernatant was taken and added into a new 96-well plate, and then mixed well with 150 μL of ultrapure water; and (5) the above samples were quantitatively analyzed by using LC-MS analysis. Gradient elution was performed on a XB—C18 chromatographic column (2.1*100 mm, 3 μm), with the mobile phase as follows: mobile phase A=0.1% formic acid-water; and mobile phase B=acetonitrile. Pharmacokinetic parameters were calculated using Phoenix WinNonlin software.

A short description of series [4]: Pharmacokinetic evaluation in SD rats. The settings on record: plasma, rat. Format: in vivo, male SD rat. How it is done: 1. The pharmacokinetic behaviors of the polypeptide derivatives (i.e., AMY-001 to AMY-041) prepared in Example 1 and Example 2 in SD rats were tested.
Each polypeptide derivative (i.e., AMY-001 to AMY-041) was administered to male SD rat as a single injection via subcutaneous injection (SC, 3 mg/kg, with PBS as a medicament vehicle, a concentration of 1.5 mg/mL, and an administration volume of 2 mL) and intravenous injection (IV, 1 mg/kg, with PBS as a medicament vehicle, a concentration of 0.5 mg/mL, and an administration volume of 2 mL), respectively. After administration, whole blood samples were respectively collected from the jugular vein or other appropriate veins at selected time points. 0.2 mL of blood was collected and placed in a labeled EDTA-K2 anticoagulant tube. The tube was gently inverted up and down to ensure thorough mixing of the anticoagulant (EDTA-K2) with the blood, immediately placed on wet ice and centrifuged as soon as possible to separate plasma, and the centrifugation conditions were set to 4° C., 6800 g, and 6 minutes. Plasma samples were stored in a refrigerator at a temperature not exceeding −20° C. until subsequent analysis.
as §1, with “(5) The” for “(5) the”, “A=0.1% (volume percentage, v/v)” for “A=0.1%”

Another series deals with T1, CTR (Homo sapiens, UniProt P30988).
T1 construct: expressed in transfected cells
T1 sequence (P30988 25-474): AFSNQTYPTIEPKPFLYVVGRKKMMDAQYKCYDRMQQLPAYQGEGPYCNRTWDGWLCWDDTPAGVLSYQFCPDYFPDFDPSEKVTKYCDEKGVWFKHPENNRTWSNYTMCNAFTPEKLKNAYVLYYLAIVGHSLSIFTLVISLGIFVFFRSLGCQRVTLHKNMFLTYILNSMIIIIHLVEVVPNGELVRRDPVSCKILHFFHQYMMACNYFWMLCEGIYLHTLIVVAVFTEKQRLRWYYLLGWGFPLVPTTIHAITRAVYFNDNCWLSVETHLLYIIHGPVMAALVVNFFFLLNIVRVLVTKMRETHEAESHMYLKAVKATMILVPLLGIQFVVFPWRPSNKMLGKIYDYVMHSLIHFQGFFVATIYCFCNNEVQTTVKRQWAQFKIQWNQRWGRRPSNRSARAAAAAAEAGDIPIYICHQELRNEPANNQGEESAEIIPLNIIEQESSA
The series is described as follows: HTRF cAMP assay, CTR. Format: cell-based. Conditions: HEK293/pGM-CREB-L-Luc/CTR pool, read-out: IC50 of receptor CTR. From the text:
(§2) 2. The polypeptide derivatives prepared in Example 1 and Example 2 of the present disclosure can bind to the target AMYR and CTR receptors on the cell membrane, activate the receptors and release cAMP. Therefore, the activity of the analyte can be determined by using an HTRF (homogeneous time-resolved fluorescence) method and using a cAMP detection kit. The specific steps were as follows:
(§3) A stable transfected cell line of HEK293/pGM-CREB-L-Luc/AMY3R pool and HEK293/pGM-CREB-L-Luc/CTR pool was constructed. The polypeptide derivatives (i.e., AMY-001 to AMY-041) prepared in Examples 1 and 2 were subjected to 5-fold serial dilution from a maximum of 1000 nM to prepare a dilution series containing 8 to 11 concentration gradients. Cagrilintide and sCT were selected as positive controls for testing, and a dilution series was prepared according to the same method for testing. The test cell lines were selected and treated with cAMP-specific trypsin for digestion, and then suspended with 3 mL of serum-free DMEM medium by pipetting, and the cells were counted. 5 μL of IBMX (prepared with serum-free DMEM medium, 0.5 mM) and test cells (5 μL/7500 cells/well) were sequentially added to a 384-well plate, incubated under the conditions of 37° C., 5% CO2 for 30 minutes, then added with cAMP-d2 (5 μL, 1×) and Anti-cAMP-Cryptate (5 μL, 1×) and placed at room temperature for 1 hour. A HTRF value was determined by a chemiluminescence microplate reader, and the results were recorded. An activation curve was plotted using GraphPad Prism software to calculate an IC50 value of each polypeptide derivative. […] The IC50 values of some polypeptides were exemplarily shown in this example, see Table 3, FIG. 2 and FIG. 3 for details.

The target of another series is T2, AMY3R (Homo sapiens, UniProt P30988).
T2 construct: expressed in transfected cells
T2 sequence (P30988 25-474): T1 sequence (P30988 25-474)
T2 sequence (O60896 24-148 partner): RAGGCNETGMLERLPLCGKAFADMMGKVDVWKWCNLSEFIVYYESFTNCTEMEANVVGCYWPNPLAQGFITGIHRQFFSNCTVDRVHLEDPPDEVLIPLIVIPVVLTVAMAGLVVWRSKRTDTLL
Description: HTRF cAMP assay, AMY3R. Format: cell-based. Conditions: HEK293/pGM-CREB-L-Luc/AMY3R pool, read-out: IC50 of receptor AMY3R.
Source text: as §2, §3
Background: Time-resolved FRET reads energy transfer from a long-lived donor to a nearby acceptor.

Data on 3 molecules can be found in patent US20260337245A1, “POLYPEPTIDE OR ANALOG THEREOF AND USE THEREOF” (Shenzhen Bay Laboratory, priority 2024, published 2026).

One may read the AUC(0-inf) as the area under the concentration-time curve extrapolated to infinity. The clearance is the rate of elimination divided by the concentration. Low readings indicate a low capacity for elimination, high ones a high capacity for elimination. As a reminder, the half-life is how long it takes for the measured level to halve. The low end stands for rapid decline, the high end for slow decline. By Cmax is commonly meant the maximum level reached in the sampled fluid or tissue. For orientation: Tmax means the time at which the peak concentration occurs. Broadly, the bioavailability is dose-corrected exposure relative to a reference, in per cent. Lower therefore signals little systemic uptake.

Starred links: 1 amine or outer side, 2 acyl side, 3 side chain; linkers in the order of their positions; H or OH if unused. Positions of bridges follow the written chain, without caps; N, C: chain ends. Non-standard residues stand in square brackets, D forms with d. Residues, ends and D or L forms follow the SMILES beside them. X1 = O=C(O)CCCCCCCCCCCCCCCCCCC(=O)N[C@@H](CCCCNC(=O)COCCOCCNC(=O)COCCOCCNC(=O)CCC(=O)N(CCNC(=O)C[*:1])CCNC(=O)C[*:2])C(=O)O; NMeR = CN[C@@H](CCCNC(=N)N)C(=O)O; Hyp = O=C(O)[C@@H]1C[C@@H](O)CN1; αMeK = C[C@](N)(CCCCN)C(=O)O; Aib = CC(C)(N)C(=O)O

For the molecule `CC(C)C[C@H](NC(=O)[C@H](CCCCN)NC(=O)CNC(=O)[C@H](CC(C)C)NC(=O)[C@@H](NC(=O)[C@@H]1CSSC[C@H](N)C(=O)N[C@@H](CO)C(=O)N[C@@H](CC(N)=O)C(=O)N[C@@H](CC(C)C)C(=O)N[C@@H](CO)C(=O)N[C@@H]([C@@H](C)O)C(=O)N1)C(C)C)C(=O)N[C@@H](CO)C(=O)N[C@@H](CCC(N)=O)C(=O)N[C@@H](CCC(=O)O)C(=O)N[C@@H](CC(C)C)C(=O)N[C@@H](Cc1c[nH]cn1)C(=O)N[C@@H](CCCCN)C(=O)N[C@@H](CC(C)C)C(=O)N[C@@H](CCC(N)=O)C(=O)N[C@H](C(=O)N[C@@H](Cc1ccc(O)cc1)C(=O)N1CCC[C@H]1C(=O)N[C@@H](CCCNC(=N)N)C(=O)N[C@H](C(=O)N[C@@H](CC(N)=O)C(=O)N[C@H](C(=O)NCC(=O)N[C@@H](CO)C(=O)NCC(=O)N[C@H](C(=O)N1CCC[C@H]1C(N)=O)[C@@H](C)O)[C@@H](C)O)[C@@H](C)O)[C@@H](C)O` [sCT], the stability entry in series [1] is recorded as “poor stability”. In addition, the in-vivo half-life result in series [2] was “short in-vivo half-life”.

In series [3] (IV (0.2 mpk)), `CC(=O)N[C@@H](C)C(=O)N[C@@H](CO)C(=O)N[C@@H](Cc1c[nH]cn1)C(=O)N[C@@H](CC(C)C)C(=O)N[C@@H](CO)C(=O)N[C@H](C(=O)N[C@@H](C)C(=O)N[C@H]1CSCC(=O)NCCN(C(=O)CCC(=O)NCCOCCOCC(=O)NCCOCCOCC(=O)NCCCC[C@H](NC(=O)CCCCCCCCCCCCCCCCCCC(=O)O)C(=O)O)CCNC(=O)CSC[C@@H](C(=O)N[C@@H](CC(C)C)C(=O)N[C@@H](Cc2c[nH]cn2)C(=O)N[C@@](C)(CCCCN)C(=O)N[C@@H](CC(C)C)C(=O)NC(C)(C)C(=O)N[C@@H](CC(=O)O)C(=O)N[C@@H](Cc2ccc(O)cc2)C(=O)N2CCC[C@H]2C(=O)N[C@@H](CCC(N)=O)C(=O)N[C@H](C(=O)N[C@@H](CC(=O)O)C(=O)N[C@H](C(=O)NCC(=O)N[C@@H](C)C(=O)NCC(=O)N[C@@H](CO)C(=O)N2C[C@H](O)C[C@H]2C(N)=O)C(C)C)[C@@H](C)O)NC(=O)[C@H](C)NC(=O)[C@H](CO)NC(=O)[C@H](CC(C)C)NC(=O)[C@H](CCCNC(=N)N)NC(=O)CNC(=O)[C@H](CC(C)C)NC1=O)[C@@H](C)O` [AMY-015, Ac-ASHLSTACLGRLSACLH-(αMeK)-L-Aib-DYPQTDVGAGS-Hyp-NH2] (Ac-ASHLSTACLGRLSACLH[αMeK]L[Aib]DYPQTDVGAGS[Hyp]-NH2; linker 8-15 via X1) gave an AUC(0-inf) of 942 µg·h/mL, a clearance of 0.217 mL/h/kg and a half-life of 146 h. Besides, in series [3] (SC (0.2 mpk)), the AUC(0-inf) stood at 514 µg·h/mL, the Cmax is 2260 ng/mL, the Tmax was 24 h and the bioavailability was 54.5%. In addition, the half-life in series [3] (SC (0.2 mpk)) was 143 h. Besides, in series [4] (1 mg/kg, IV (1 mpk)), the AUC(0-inf) worked out at 286 µg·h/mL, the clearance amounted to 3.52 mL/h/kg and the half-life was 20.5 h. Moreover, in series [4] (3 mg/kg, SC (3 mpk)), the AUC(0-inf) is 567 µg·h/mL, the maximum concentration (Cmax) turned out to be 11100 ng/mL, the Tmax stood at 24 h and the bioavailability is 66.1%. This molecule also gave a half-life in series [4] (3 mg/kg, SC (3 mpk)) of 20.6 h.

`CC(=O)N[C@@H](C)C(=O)N[C@@H](CO)C(=O)N[C@@H](Cc1c[nH]cn1)C(=O)N[C@@H](CC(C)C)C(=O)N[C@@H](CO)C(=O)N[C@H](C(=O)N[C@@H](C)C(=O)N[C@H]1CSCC(=O)NCCN(C(=O)CCC(=O)NCCOCCOCC(=O)NCCOCCOCC(=O)NCCCC[C@H](NC(=O)CCCCCCCCCCCCCCCCCCC(=O)O)C(=O)O)CCNC(=O)CSC[C@@H](C(=O)N[C@@H](CC(C)C)C(=O)N[C@@H](Cc2c[nH]cn2)C(=O)N[C@@](C)(CCCCN)C(=O)N[C@@H](CC(C)C)C(=O)NC(C)(C)C(=O)N[C@@H](CC(=O)O)C(=O)N[C@@H](Cc2ccc(O)cc2)C(=O)N2CCC[C@H]2C(=O)N(C)[C@@H](CCCNC(=N)N)C(=O)N[C@H](C(=O)N[C@@H](CC(=O)O)C(=O)N[C@H](C(=O)NCC(=O)N[C@@H](C)C(=O)NCC(=O)N[C@@H](CO)C(=O)N2C[C@H](O)C[C@H]2C(N)=O)C(C)C)[C@@H](C)O)NC(=O)[C@H](C)NC(=O)[C@H](CO)NC(=O)[C@H](CC(C)C)NC(=O)[C@H](CCCNC(=N)N)NC(=O)CNC(=O)[C@H](CC(C)C)NC1=O)[C@@H](C)O` [AMY-011, Ac-ASHLSTACLGRLSACLH-(αMeK)-L-Aib-DYP-(N-Me-R)-TDVGAGS-Hyp-NH2] (Ac-ASHLSTACLGRLSACLH[αMeK]L[Aib]DYP[NMeR]TDVGAGS[Hyp]-NH2; linker 8-15 via X1): at CTR, the EC50 worked out at 12.2 pM. In addition, in series [4] (1 mg/kg, IV (1 mpk)), the AUC(0-inf) was 143 µg·h/mL, the clearance is 7.02 mL/h/kg and the half-life was 15.5 h. Further, in series [4] (3 mg/kg, SC (3 mpk)), the AUC(0-inf) was 283 µg·h/mL, the Cmax amounted to 6830 ng/mL, the Tmax turned out to be 8 h and the bioavailability was 65.9%. Also, the half-life in series [4] (3 mg/kg, SC (3 mpk)) was 15.6 h. In addition, the EC50 on AMY3R was determined as 4.8 pM.
